Measurements reported in ChEMBL document CHEMBL3286107, “Synthesis of C,N'-linked bis-heterocycles using a deprotometalation-iodination-N-arylation sequence and evaluation of their antiproliferative activity in melanoma cells” (Bioorg Med Chem, 2014).
pIC50: −log10 of the molar value. The source made the active and inactive calls. The rule behind the calls is not given here.

Columns and labels:
A2058 [1] = assay: Growth inhibition of human A2058 cells at 10 uM after 72 hrs by MTT assay; type: functional
A2058 [2] = assay: Antiproliferative activity against human A2058 cells assessed as inhibition of cell growth after 72 hrs by MTT assay; type: functional, cell-based; conditions: A2058, 72 h

Row | Compound | growth inhibition (GI) (A2058 [1]) | inhibition of growth at 10 µM (A2058 [1]; A2058, 72 h, read-out: GI) [%] | pIC50 (A2058 [2])
1 | c1ccc2sc(-n3cnc4ccccc43)nc2c1 | Active |  | 
2 | c1ccc2oc(-n3cnc4ccccc43)cc2c1 | Active |  | 
3 | c1ccc2sc(-n3cnc4ccccc43)cc2c1 | Active |  | 
4 | c1ccc2oc(-n3ccnc3)nc2c1 |  | 84.3 | 5.15
5 | c1ccc2oc(-n3cnc4ccccc43)nc2c1 | Active |  | 
